For this experiment, the target named is human MGL from HeLa cells (Homo sapiens (Human), UniProt Q99685). The experiment can be described thus: MGL in vitro activity assay ([glycerol-1,3-3H]-oleoyl glycerol hydrolysis, activated carbon filtration). In kind it is biochemical. The following applies: 300 nM [Glycerol-1,3-3H]-oleoyl glycerol, one hour. As to the method: The assay used to measure the in vitro activity of MGL is adapted from the assay used for another serine hydrolase (FAAH) described in Wilson et al., 2003 (A high-throughput-compatible assay for determining the activity of fatty acid amide hydrolase. Wilson S J, Lovenberg T W, Barbier A J. Anal Biochem. 2003 Jul. 15; 318(2):270-5). The assay consists of combining endogenously expressed MGL from HeLa cells with test compounds, adding [glycerol-1,3-^3H]-oleyl glycerol, incubating for one hour, and then measuring the amount of cleaved [1,3-^3H]-glycerol that passes through an activated carbon filter. The amount of cleaved, tritiated glycerol passing through the carbon filter is proportional to the activity of the MGL enzyme in a particular well/test condition.
human MGL from HeLa cells, sequence (Q99685 whole entry): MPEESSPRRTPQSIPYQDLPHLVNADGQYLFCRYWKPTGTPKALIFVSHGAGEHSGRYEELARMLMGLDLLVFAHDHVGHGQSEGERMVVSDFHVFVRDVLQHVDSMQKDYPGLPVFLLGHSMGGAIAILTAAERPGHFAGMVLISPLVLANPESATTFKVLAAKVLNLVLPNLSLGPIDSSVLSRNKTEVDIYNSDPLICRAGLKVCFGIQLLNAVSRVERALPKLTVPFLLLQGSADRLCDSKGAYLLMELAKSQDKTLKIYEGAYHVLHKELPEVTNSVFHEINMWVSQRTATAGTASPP
Standard conditions for this assay combine 300 nM [Glycerol-1,3-^3H]-oleoyl glycerol with human MGL from HeLa cells and test compounds for one hour, after which the reaction is filtered through activated carbon and tritium is measured in the flow through. The test compound concentration in screening mode is 10 μM, while the highest compound concentration in IC50 assays is determined empirically. MGL is the predominant hydrolase in HeLa cells/cell homogenates.
A word on the IC50: it is the concentration that inhibits the measured activity by half. With `C[C@]1(O)C[C@@H](C(=O)N2CC3(CCC(c4ccn5nccc5c4)C3)C2)C1` (mixture of isomers) [Example 97, (rac)-((1s,3s)-3-Hydroxy-3-methylcyclobutyl)(6-(pyrazolo[1,5-a]pyridin-5-yl)-2-azaspiro[3.4]octan-2-yl)methanone], the midpoint of inhibition, the IC50, lay at 654 nM. This counts as sub-micromolar.

Consider `Cc1nc(O[C@@H]2CCC3(C[C@H]2C)CN(C(=O)[C@H]2C[C@@](C)(O)C2)C3)ccc1C(F)(F)F` (stereo in doubt) [Example 445, ((1s,3*S)-3-Hydroxy-3-methylcyclobutyl)((6*R,7*R)-6-methyl-7-((6-methyl-5-(trifluoromethyl)pyridin-2-yl)oxy)-2-azaspiro[3.5]nonan-2-yl)methanone], for which inhibition was half-maximal at 33 nM (IC50).

Turning to `COc1ccc(CC2CCC3(C2)CN(C(=O)[C@H]2C[C@@](C)(O)C2)C3)cc1` (mixture of isomers) [Example 205, (rac)-((1s,3s)-3-Hydroxy-3-methylcyclobutyl)(6-(4-methoxybenzyl)-2-azaspiro[3.4]octan-2-yl)methanone], the IC50 came to 76 nM.

With `C[C@]1(O)C[C@@H](C(=O)N2CC3(CCC(c4ccc5ccn(CC(F)(F)F)c5n4)CC3)C2)C1` [Example 387, ((1s,3s)-3-Hydroxy-3-methylcyclobutyl)(7-(1-(2,2,2-trifluoroethyl)-1H-pyrrolo[2,3-b]pyridin-6-yl)-2-azaspiro[3.5]nonan-2-yl)methanone], the half-inhibitory concentration (IC50) came to 68 nM. The IC50 values of the last two molecules are within 1.5-fold of each other.

`Cc1cc(C2CCC3(CC2)CN(C(=O)[C@H]2C[C@@](C)(O)C2)C3)ccc1F` [Example 353, (7-(4-Fluoro-3-methylphenyl)-2-azaspiro[3.5]nonan-2-yl)((1s,3s)-3-hydroxy-3-methylcyclobutyl)methanone] showed a half-maximal inhibitory concentration (IC50) of 18 nM.

Take `Cc1nc([C@@H](C)C2CC3(C2)CN(C(=O)[C@H]2C[C@@](C)(O)C2)C3)ccc1C(F)(F)F` (stereo in doubt) [Example 313, ((1s,3*R)-3-Hydroxy-3-methylcyclobutyl)(6-((*S)-1-(6-methyl-5-(trifluoromethyl)pyridin-2-yl)ethyl)-2-azaspiro[3.3]heptan-2-yl)methanone]: it took 52 nM to reach half-maximal inhibition (IC50).

In turn, `Cc1cc(CC2CC3(C2)CN(C(=O)[C@H]2C[C@@](C)(O)C2)C3)cc2c1cnn2C` [Example 300, (6-((1,4-Dimethyl-1H-indazol-6-yl)methyl)-2-azaspiro[3.3]heptan-2-yl)((1s,3s)-3-hydroxy-3-methylcyclobutyl)methanone] yielded an IC50 of 20 nM.

Consider `C[C@@H](c1ccccc1)C1CC2(C1)CN(C(=O)[C@H]1C[C@@](C)(O)C1)C2` (stereo in doubt) [Example 310, ((1s,3*S)-3-Hydroxy-3-methylcyclobutyl)(6-((*R)-1-phenylethyl)-2-azaspiro[3.3]heptan-2-yl)methanone], for which the midpoint of inhibition, the IC50, lay at 33 nM.

In turn, `CC(C)c1cccc([C@@H]2CCC3(C2)CN(C(=O)[C@H]2C[C@@](C)(O)C2)C3C)c1` (relative stereo) [Example 318, ((1s,3*S)-3-Hydroxy-3-methylcyclobutyl)((6*R)-6-(3-isopropylphenyl)-1-methyl-2-azaspiro[3.4]octan-2-yl)methanone] came in with an IC50 of 48 nM.

Molecule `C[C@]1(O)C[C@@H](C(=O)N2CC3(CC[C@@H](c4cccc(C(F)(F)F)c4)C3)C2)C1` (stereo in doubt) [Example 62, ((1s,3*S)-3-Hydroxy-3-methylcyclobutyl)((*R)-6-(3-(trifluoromethyl)phenyl)-2-azaspiro[3.4]octan-2-yl)methanone] gave an IC50 of 34 nM.

`Cc1ccc(CC2CC3(C2)CN(C(=O)[C@H]2C[C@@](C)(O)C2)C3)nc1OC(C)C` [Example 279, ((1s,3s)-3-Hydroxy-3-methylcyclobutyl)(6-((6-isopropoxy-5-methylpyridin-2-yl)methyl)-2-azaspiro[3.3]heptan-2-yl)methanone] had a half-maximal inhibitory concentration (IC50) of 10 nM.

Regarding `C[C@]1(O)C[C@@H](C(=O)N2CC3(CC[C@H](c4cccc(C(F)(F)F)c4)C3)C2)C1` (stereo in doubt) [Example 63, ((1s,3*R)-3-Hydroxy-3-methylcyclobutyl)((*S)-6-(3-(trifluoromethyl)phenyl)-2-azaspiro[3.4]octan-2-yl)methanone], it took 22 nM to reach half-maximal inhibition (IC50).

In turn, `CC(C)c1cccc(C[C@@H]2CCC3(C2)CN(C(=O)[C@H]2C[C@@](C)(O)C2)C3)c1` (racemic) [Example 181, (rac)-((1s,3s)-3-Hydroxy-3-methylcyclobutyl)(6-(3-isopropylbenzyl)-2-azaspiro[3.4]octan-2-yl)methanone] displayed a half-inhibitory concentration (IC50) of 4.6 nM.

`Cc1nc(OC2CCC3(CC2)CN(C(=O)[C@H]2C[C@@](C)(O)C2)C3)ccc1C(F)F` [Example 438, (7-((5-(Difluoromethyl)-6-methylpyridin-2-yl)oxy)-2-azaspiro[3.5]nonan-2-yl)((1s,3s)-3-hydroxy-3-methylcyclobutyl)methanone] displayed an IC50 of 32 nM.

For `COc1cccc(C2CCC3(CC2)CN(C(=O)[C@H]2C[C@@](C)(O)C2)C3)n1` [Example 117, ((1s,3s)-3-Hydroxy-3-methylcyclobutyl)(7-(6-methoxypyridin-2-yl)-2-azaspiro[3.5]nonan-2-yl)methanone], the IC50 turned out to be 420 nM.

`COc1ccccc1CC1CC2(C1)CN(C(=O)[C@H]1C[C@@](C)(O)C1)C2` [Example 216, ((1s,3s)-3-Hydroxy-3-methylcyclobutyl)(6-(2-methoxybenzyl)-2-azaspiro[3.3]heptan-2-yl)methanone] displayed a half-maximal inhibitory concentration (IC50) of 12 nM.

As for `CC(C)c1ccccc1OC1CCC2(CC1)CN(C(=O)[C@H]1C[C@@](C)(O)C1)C2` [Example 265, ((1s,3s)-3-Hydroxy-3-methylcyclobutyl)(7-(2-isopropylphenoxy)-2-azaspiro[3.5]nonan-2-yl)methanone], the IC50 is 37 nM.

On to `C[C@]1(O)C[C@@H](C(=O)N2CC3(CCC(Cc4ccc(C(F)F)cc4)C3)C2)C1` (mixture of isomers) [Example 182, (rac)-(6-(4-(Difluoromethyl)benzyl)-2-azaspiro[3.4]octan-2-yl)((1s,3s)-3-hydroxy-3-methylcyclobutyl)methanone], for which the IC50 came out at 34 nM.

In turn, `Cc1ccc(OC2CCC3(C2)CN(C(=O)[C@H]2C[C@@](C)(O)C2)C3)cc1C1CC1` (mixture of isomers) [Example 332, (rac)-(6-(3-Cyclopropyl-4-methylphenoxy)-2-azaspiro[3.4]octan-2-yl)((1s,3s)-3-hydroxy-3-methylcyclobutyl)methanone] registered a concentration for half-maximal inhibition (IC50) of 136 nM.

In the case of `CC(C)c1ccc(CC2CCC3(C2)CN(C(=O)[C@H]2C[C@@](C)(O)C2)C3)cc1` (mixture of isomers) [Example 170, (rac)-((1s,3s)-3-Hydroxy-3-methylcyclobutyl)(6-(4-isopropylbenzyl)-2-azaspiro[3.4]octan-2-yl)methanone], the half-maximal inhibitory concentration (IC50) turned out to be 10 nM.

In turn, `C[C@@H](c1ccccc1)[C@H]1CCC2(C1)CN(C(=O)[C@H]1C[C@@](C)(O)C1)C2` (relative stereo) [Example 338, ((1s,3*R)-3-Hydroxy-3-methylcyclobutyl)((*S)-6-((*R)-1-phenylethyl)-2-azaspiro[3.4]octan-2-yl)methanone] yielded a half-maximal inhibitory concentration (IC50) of 60 nM. Against the preceding molecule, the IC50 is about 6-fold higher.

In turn, `CCc1ccc(C2CCC3(C2)CN(C(=O)[C@H]2C[C@@](C)(O)C2)C3)cc1` (mixture of isomers) [Example 96, (rac)-(6-(4-Ethylphenyl)-2-azaspiro[3.4]octan-2-yl)((1s,3s)-3-hydroxy-3-methylcyclobutyl)methanone] had a concentration for half-maximal inhibition (IC50) of 18 nM.

Take `CC(C)c1cccc(C2CC3(CCN(C(=O)[C@H]4C[C@@](C)(O)C4)C3)C2)c1` (stereo partly shown) [Example 36, ((1s,3s)-3-Hydroxy-3-methylcyclobutyl)(2-(3-isopropylphenyl)-6-azaspiro[3.4]octan-6-yl)methanone]: the IC50 was 153 nM. This IC50 is about 8.5-fold higher than that of the molecule before.

In the case of `C[C@]1(O)C[C@@H](C(=O)N2CC3(CCC(c4ccc(OC(F)(F)F)cc4)C3)C2)C1` (mixture of isomers) [Example 52, (rac)-((1s,3s)-3-Hydroxy-3-methylcyclobutyl)(6-(4-(trifluoromethoxy)phenyl)-2-azaspiro[3.4]octan-2-yl)methanone], 16 nM corresponded to half-maximal inhibition (IC50).

Molecule `Cc1cc(C2CCC3(C2)CN(C(=O)[C@H]2C[C@@](C)(O)C2)C3)cc(C(F)(F)F)c1` (mixture of isomers) [Example 77, (rac)-((1s,3s)-3-Hydroxy-3-methylcyclobutyl)(6-(3-methyl-5-(trifluoromethyl)phenyl)-2-azaspiro[3.4]octan-2-yl)methanone] gave a half-maximal inhibitory concentration (IC50) of 12 nM. The IC50 values of the last two molecules are within 1.5-fold of each other.

With `Cc1nc(O[C@H]2CCC3(C[C@@H]2C)CN(C(=O)[C@H]2C[C@@](C)(O)C2)C3)ccc1C(F)(F)F` (stereo in doubt) [Example 444, ((1s,3*R)-3-Hydroxy-3-methylcyclobutyl)((6*S,7*S)-6-methyl-7-((6-methyl-5-(trifluoromethyl)pyridin-2-yl)oxy)-2-azaspiro[3.5]nonan-2-yl)methanone], half-maximal inhibition (IC50) required 4.8 nM.

For the molecule `Cc1ccc(C2CC3(C2)CN(C(=O)[C@H]2C[C@@](C)(O)C2)C3)cc1C1CC1` [Example 27, (6-(3-Cyclopropyl-4-methylphenyl)-2-azaspiro[3.3]heptan-2-yl)((1s,3s)-3-hydroxy-3-methylcyclobutyl)methanone], the half-maximal inhibitory concentration (IC50) stood at 47 nM. This IC50 is about 9.8-fold higher than that of the molecule before.

Take `Cc1nn(C)c2cc(CC3CC4(C3)CN(C(=O)[C@H]3C[C@@](C)(O)C3)C4)ccc12` [Example 302, (6-((1,3-Dimethyl-1H-indazol-6-yl)methyl)-2-azaspiro[3.3]heptan-2-yl)((1s,3s)-3-hydroxy-3-methylcyclobutyl)methanone]: 21 nM corresponded to half-maximal inhibition (IC50).
